Results as given in patent US20240041042A1, “1-(PYRIDYL)-5-AZINYLPYRAZOLE DERIVATIVES, AND THEIR USE FOR CONTROL OF UNDESIRED PLANT GROWTH” (Bayer Aktiengesellschaft, priority 2020, published 2024).
Like-named read-outs stand apart in the source and are kept apart here.

What was measured:
Type in all cases: in vivo
[1] = system: Alopecurus myosuroides (ALOMY); experiment: Pre-emergence herbicidal action against ALOMY; conditions: scored visually after about 3 weeks, 100% = plants have died
Description: (§1) Seeds of monocotyledonous and dicotyledonous weed plants and crop plants are placed in plastic or organic planting pots and covered with soil. The compounds of the invention, formulated in the form of wettable powders (WP) or as emulsion concentrates (EC), are then applied to the surface of the covering soil as aqueous suspension or emulsion with addition of 0.5% additive at a water application rate equivalent to 600 l/ha. After the treatment, the pots are placed in a greenhouse and kept under good growth conditions for the trial plants. After about 3 weeks, the effect of the preparations is scored visually in comparison with untreated controls as percentages. For example, 100% activity=the plants have died, 0% activity=like control plants.
(§2) Tables A1 to A13 below show the effects of selected compounds of the general formula (I) on various harmful plants and at an application rate corresponding to 320 g/ha or lower, which were obtained by the experimental procedure mentioned above. The appendices “a”, “b” and “c” give differentiation by dosage used with otherwise the same harmful plants tested.

[2] = system: Amaranthus retroflexus (AMARE); experiment: Pre-emergence herbicidal action against AMARE; conditions: visual scoring after about 3 weeks vs untreated controls
Description: as §1, §2

[3] = system: Avena fatua (AVEFA); experiment: Pre-emergence herbicidal action against AVEFA; conditions: visual scoring after about 3 weeks vs untreated controls
Description: as §1, §2

[4] = system: Echinochloa crus-galli (ECHCG); experiment: Pre-emergence herbicidal action against ECHCG; conditions: dosage 320 g/ha
Description: as §1, §2

[5] = system: Lolium rigidum (LOLRI); experiment: Pre-emergence herbicidal action against LOLRI
Description: as §1, §2

[6] = system: Matricaria inodora (MATIN); experiment: Pre-emergence herbicidal action against MATIN
Description: as §1, §2

[7] = system: Polygonum convolvulus (POLCO); experiment: Pre-emergence herbicidal action against POLCO
Description: as §1, §2

[8] = system: Setaria viridis (SETVI); experiment: Pre-emergence herbicidal action against SETVI
Description: as §1, §2

[9] = system: Verconica persica (VERPE); experiment: Pre-emergence herbicidal action against VERPE
Description: as §1, §2

[10] = system: Viola tricolor (VIOTR); experiment: Pre-emergence herbicidal action against VIOTR
Description: as §1, §2

[11] = system: Alopecurus myosuroides (ALOMY); experiment: Post-emergence herbicidal action against ALOMY; conditions: visual rating about 3 weeks after treatment vs untreated controls (100% = plants have died, 0% = like control plants)
Experimental: (§3) Seeds of monocotyledonous and dicotyledonous weeds and crop plants are placed in sandy loam in plastic or organic planting pots, covered with soil and cultivated in a greenhouse under controlled growth conditions. 2 to 3 weeks after sowing, the test plants are treated at the one-leaf stage. The compounds of the invention, formulated in the form of wettable powders (WP) or as emulsion concentrates (EC), are then sprayed onto the green parts of the plants as aqueous suspension or emulsion with addition of 0.5% additive at a water application rate of 600 l/ha (converted). After the test plants have been kept in the greenhouse under optimum growth conditions for about 3 weeks, the activity of the preparations is rated visually in comparison to untreated controls. For example, 100% activity=the plants have died, 0% activity=like control plants.
(§4) Tables B1 to B13 below show the effects of selected compounds of the general formula (I) according to Table 1 on various harmful plants and at an application rate corresponding to 320 g/ha or lower, which were obtained by the experimental procedure mentioned above. The appendices “a”, “b” and “c” give differentiation by dosage used with otherwise the same harmful plants tested.

[12] = system: Avena fatua (AVEFA); experiment: Post-emergence herbicidal action against AVEFA; conditions: visual rating about 3 weeks after treatment
Experimental: as §3, §4

[13] = system: Lolium rigidum (LOLRI); experiment: Post-emergence herbicidal action against LOLRI
Experimental: as §3, §4

[14] = system: Pharbitis purpurea (PHBPU); experiment: Post-emergence herbicidal action against PHBPU
Experimental: as §3, §4

[15] = system: Verconica persica (VERPE); experiment: Post-emergence herbicidal action against VERPE
Experimental: as §3, §4

[16] = system: Oryza sativa (ORYSA); conditions: crop plant compatibility
Experimental: as §3
(§5) The observed effects on selected crop plants are reported here in comparison to the untreated controls (values in %). The appendices “a”, “b” and “c” give differentiation by dosage used with otherwise the same crop plants tested.

[17] = system: Zea mays (ZEAMX); conditions: for Post-emergence action against ZEAMX in % (crop plant compatibility): 20 g/ha, effect in comparison to untreated controls; for Post-emergence action against ZEAMX in %: crop plant compatibility, 80 g/ha, effect vs untreated controls
Experimental: as §3, §5

[18] = system: Amaranthus retroflexus (AMARE); experiment: Post-emergence herbicidal action against AMARE; conditions: 80 g/ha, visual rating about 3 weeks after treatment vs untreated controls (100% = plants have died, 0% = like control plants)
Experimental: as §3, §4

[19] = system: Echinochloa crus-galli (ECHCG); experiment: Post-emergence herbicidal action against ECHCG
Experimental: as §3, §4

[20] = system: Setaria viridis (SETVI); experiment: Post-emergence herbicidal action against SETVI
Experimental: as §3, §4

[21] = system: Abutilon theophrasti (ABUTH); experiment: Post-emergence herbicidal action against ABUTH; conditions: 320 g/ha, visual rating about 3 weeks after treatment vs untreated controls (100% = plants have died, 0% = like control plants)
Experimental: as §3, §4

[22] = system: Polygonum convolvulus (POLCO); experiment: Post-emergence herbicidal action against POLCO; conditions: dosage 320 g/ha
Experimental: as §3, §4

[23] = system: Viola tricolor (VIOTR); experiment: Post-emergence herbicidal action against VIOTR
Experimental: as §3, §4

[24] = 20 g/ha, effect vs untreated controls
[25] = 80 g/ha, effect in comparison to untreated controls

COCCOCCOC(=O)[C@@H](C)Oc1nn(-c2ncccc2F)c(-c2ccc(F)nc2)c1Br [Example I-34]
Pre-emergence action against ALOMY ([1]; 80 g/ha): 90%
Pre-emergence action against ALOMY ([1]; 320 g/ha): 100%
Pre-emergence action against AMARE in % ([2]; 80 g/ha): 100%
Pre-emergence action against AMARE in % ([2]; 320 g/ha): 100%
Pre-emergence action against AVEFA in % ([3]; 80 g/ha): 80%
Pre-emergence action against AVEFA in % ([3]; 320 g/ha): 90%
Pre-emergence action against ECHCG in % [4]: 100%
Pre-emergence action against LOLRI in % ([5]; dosage 80 g/ha): 90%
Pre-emergence action against LOLRI in % ([5]; dosage 320 g/ha): 100%
Pre-emergence action against MATIN in % ([6]; dosage 320 g/ha): 90%
Pre-emergence action against POLCO in % ([7]; dosage 80 g/ha): 80%
Pre-emergence action against POLCO in % ([7]; dosage 320 g/ha): 90%
Pre-emergence action against SETVI in % ([8]; dosage 80 g/ha): 90%
Pre-emergence action against SETVI in % ([8]; dosage 320 g/ha): 100%
Pre-emergence action against VERPE in % ([9]; dosage 80 g/ha): 90%
Pre-emergence action against VERPE in % ([9]; dosage 320 g/ha): 100%
Pre-emergence action against VIOTR in % ([10]; 320 g/ha, Viola tricolor): 100%
Pre-emergence action against VIOTR in % ([10]; dosage 80 g/ha): 100%
Post-emergence action against ALOMY in % ([11]; 80 g/ha): 90%
Post-emergence action against AVEFA in % ([12]; 80 g/ha): 90%
Post-emergence action against LOLRI in % ([13]; dosage 80 g/ha): 80%
Post-emergence action against PHBPU in % ([14]; dosage 80 g/ha): 80%
Post-emergence action against VERPE in % ([15]; dosage 80 g/ha): 90%
Post-emergence action against ORYSA in % [16, 24]: 10%
Post-emergence action against ORYSA in % [16, 25]: 20%
Post-emergence action against ZEAMX in % (crop plant compatibility) [17]: 10%
Post-emergence action against ZEAMX in % [17]: 10%

CCOC(=O)[C@@H](C)Oc1nn(-c2ccccn2)c(-c2ccc(F)nc2)c1Br [Example I-91]
Pre-emergence action against ALOMY ([1]; 80 g/ha): 90%
Pre-emergence action against ALOMY ([1]; 320 g/ha): 100%
Pre-emergence action against AMARE in % ([2]; 80 g/ha): 90%
Pre-emergence action against AMARE in % ([2]; 320 g/ha): 100%
Pre-emergence action against AVEFA in % ([3]; 320 g/ha): 100%
Pre-emergence action against ECHCG in % [4]: 100%
Pre-emergence action against LOLRI in % ([5]; dosage 80 g/ha): 100%
Pre-emergence action against LOLRI in % ([5]; dosage 320 g/ha): 100%
Pre-emergence action against MATIN in % ([6]; dosage 320 g/ha): 90%
Pre-emergence action against SETVI in % ([8]; dosage 80 g/ha): 100%
Pre-emergence action against SETVI in % ([8]; dosage 320 g/ha): 100%
Pre-emergence action against VERPE in % ([9]; dosage 320 g/ha): 100%
Pre-emergence action against VIOTR in % ([10]; 320 g/ha, Viola tricolor): 100%
Pre-emergence action against VIOTR in % ([10]; dosage 80 g/ha): 90%
Post-emergence action against ALOMY in % ([11]; 80 g/ha): 90%
Post-emergence action against AMARE in % [18]: 90%
Post-emergence action against AVEFA in % ([12]; 80 g/ha): 90%
Post-emergence action against ECHCG in % ([19]; dosage 80 g/ha): 80%
Post-emergence action against LOLRI in % ([13]; dosage 80 g/ha): 90%
Post-emergence action against PHBPU in % ([14]; dosage 80 g/ha): 80%
Post-emergence action against SETVI in % ([20]; dosage 80 g/ha): 80%
Post-emergence action against VERPE in % ([15]; dosage 80 g/ha): 80%
Post-emergence action against ORYSA in % [16, 24]: 0%
Post-emergence action against ORYSA in % [16, 25]: 20%
Post-emergence action against ZEAMX in % (crop plant compatibility) [17]: 20%

C[C@@H](Oc1nn(-c2nc(F)ccc2F)c(-c2ccc(F)nc2)c1Cl)C(=O)O [Example I-311]
Pre-emergence action against ALOMY ([1]; 80 g/ha): 80%
Pre-emergence action against ALOMY ([1]; 320 g/ha): 90%
Pre-emergence action against AMARE in % ([2]; 80 g/ha): 80%
Pre-emergence action against AMARE in % ([2]; 320 g/ha): 90%
Pre-emergence action against AVEFA in % ([3]; 320 g/ha): 90%
Pre-emergence action against ECHCG in % [4]: 100%
Pre-emergence action against LOLRI in % ([5]; dosage 80 g/ha): 90%
Pre-emergence action against LOLRI in % ([5]; dosage 320 g/ha): 90%
Pre-emergence action against MATIN in % ([6]; dosage 80 g/ha): 80%
Pre-emergence action against MATIN in % ([6]; dosage 320 g/ha): 90%
Pre-emergence action against POLCO in % ([7]; dosage 80 g/ha): 80%
Pre-emergence action against POLCO in % ([7]; dosage 320 g/ha): 90%
Pre-emergence action against SETVI in % ([8]; dosage 320 g/ha): 100%
Pre-emergence action against VERPE in % ([9]; dosage 80 g/ha): 80%
Pre-emergence action against VERPE in % ([9]; dosage 320 g/ha): 90%
Pre-emergence action against VIOTR in % ([10]; 320 g/ha, Viola tricolor): 100%
Pre-emergence action against VIOTR in % ([10]; dosage 80 g/ha): 90%
Post-emergence action against ABUTH in % [21]: 80%
Post-emergence action against ALOMY in % ([11]; 80 g/ha): 80%
Post-emergence action against ALOMY in % ([11]; 320 g/ha): 90%
Post-emergence action against AVEFA in % ([12]; 320 g/ha): 80%
Post-emergence action against ECHCG in % ([19]; dosage 80 g/ha): 80%
Post-emergence action against ECHCG in % ([19]; dosage 320 g/ha): 90%
Post-emergence action against LOLRI in % ([13]; dosage 320 g/ha): 80%
Post-emergence action against PHBPU in % ([14]; dosage 320 g/ha): 90%
Post-emergence action against POLCO in % [22]: 80%
Post-emergence action against SETVI in % ([20]; dosage 320 g/ha): 80%
Post-emergence action against VERPE in % ([15]; 320 g/ha, VERPE): 90%
Post-emergence action against VIOTR in % ([23]; 80 g/ha): 80%
Post-emergence action against VIOTR in % ([23]; 320 g/ha): 80%
Post-emergence action against ORYSA in % [16, 25]: 20%
Post-emergence action against ZEAMX in % [17]: 10%
